The test system of assay [1] is Salmonella enterica serovar Typhimurium SL1344.
Assay [2] has the same test system. Description: intracellular MIC (10-fold luminescence reduction); higher = less potent. Particulars: RAW264.7 macrophages.
A further assay has as its system RAW264.7. Description: cytotoxicity (LDH release relative to maximum lysis); higher = more toxic. Particulars: 50 µM; 2 h. A general note: LDH leaks from cells whose membrane has failed.

Each structure is given as a SMILES string. In brackets after ≈: the same amount, converted by molar mass. Structures can show the parent of a compound that is named as a salt.

The MIC is the smallest concentration in the dilution series that meets the test's criterion for growth inhibition. Regarding `CC[C@@H]1C(=O)OC[C@@H]1Cc1cncn1C` [PILOCARPINE NITRATE], the MIC in assay [1] (LPM pH 5.8), in assay [1] (MHB) and in assay [1] (MOPS glucose minimal medium) was above 50 µM each time. In addition, the “intracellular MIC” value in assay [2] is at most 0.78 µM. This compound also showed a cytotoxicity in the assay with RAW264.7 of 7.24%.

With `CC(C)NCC(O)COc1cccc2[nH]ccc12` (stereo not given) [PINDOLOL], the MIC in assay [1] (LPM pH 5.8), in assay [1] (MHB) and in assay [1] (MOPS glucose minimal medium) was above 50 µM in each case. Further, in assay [2], the “intracellular MIC” value was 1.56 µM. Moreover, the cytotoxicity in the assay on RAW264.7 was found to be 7.73%.

Take `CCN1CCN(C(=O)N[C@@H](C(=O)N[C@@H]2C(=O)N3[C@@H]2SC(C)(C)[C@@H]3C(=O)O)c2ccccc2)C(=O)C1=O` [PIPERACILLIN SODIUM]: the MIC in assay [1] (LPM pH 5.8) is 3.13 µM; in assay [1] (MHB) it was 12.5 µM; in assay [1] (MOPS glucose minimal medium), 6.25 µM. Moreover, the “intracellular MIC” value in assay [2] amounted to 3.13 µM. In the assay on RAW264.7, the cytotoxicity was determined as 7.66%.

In the case of `Cc1cc(CC(C)CC(C)(C)C)n(O)c(=O)c1` (stereo not given) [PIROCTONE OLAMINE], the minimal inhibitory concentration (MIC) in assay [1] (LPM pH 5.8), in assay [1] (MHB) and in assay [1] (MOPS glucose minimal medium) was at most 0.78 µM each time. The “intracellular MIC” value in assay [2] was at most 0.78 µM. In the assay on RAW264.7, the cytotoxicity worked out at 20.8%.

For `Cc1oc(=O)oc1CN1CCN(c2cc3c(cc2F)c(=O)c(C(=O)O)c2n3C(C)S2)CC1` (stereo not given) [PRULIFLOXACIN], the minimum inhibitory concentration (MIC) in assay [1] (LPM pH 5.8), in assay [1] (MHB) and in assay [1] (MOPS glucose minimal medium) was at most 0.78 µM throughout. In addition, the “intracellular MIC” value in assay [2] is at most 0.78 µM. For the same compound, the cytotoxicity in the assay with RAW264.7 came to 13.2%.

As to `CN(C)C(=O)Oc1ccc[n+](C)c1` [PYRIDOSTIGMINE BROMIDE], the MIC in assay [1] (LPM pH 5.8), in assay [1] (MHB) and in assay [1] (MOPS glucose minimal medium) was above 50 µM each time. Besides, in assay [2], the “intracellular MIC” value was above 50 µM. Also, the cytotoxicity in the assay with RAW264.7 was found to be 6.09%.

With `[O-][n+]1ccccc1[S-].[O-][n+]1ccccc1[S-].[Zn+2]` [PYRITHIONE ZINC], the MIC in assay [1] (LPM pH 5.8) was at most 0.78 µM; in assay [1] (MHB) it was 3.13 µM; in assay [1] (MOPS glucose minimal medium), 3.13 µM. Further, in assay [2], the “intracellular MIC” value turned out to be 3.13 µM. In addition, in the assay on RAW264.7, the cytotoxicity worked out at 84.4%.

For `CO[C@H]1/C=C/O[C@@]2(C)Oc3c(C)c(O)c4c(O)c(c(/C=N/N5CCN(C)CC5)c(O)c4c3C2=O)NC(=O)/C(C)=C\C=C\[C@H](C)[C@H](O)[C@@H](C)[C@@H](O)[C@@H](C)[C@H](OC(C)=O)[C@@H]1C` [RIFAMPIN], the figures for the minimal inhibitory concentration (MIC) in assay [1] (LPM pH 5.8), in assay [1] (MHB) and in assay [1] (MOPS glucose minimal medium) were 3.13 µM (≈ 2.58 µg/mL), 50 µM (≈ 41.1 µg/mL) and 25 µM (≈ 20.6 µg/mL), respectively. Besides, the “intracellular MIC” value in assay [2] is at most 0.78 µM. Besides, the cytotoxicity with RAW264.7 worked out at 8.58%.

On to `CO[C@H]1/C=C/O[C@@]2(C)Oc3c(C)c(O)c4c(O)c(c5c(nc6cc(C)ccn65)c4c3C2=O)NC(=O)/C(C)=C\C=C\[C@H](C)[C@H](O)[C@@H](C)[C@@H](O)[C@@H](C)[C@H](OC(C)=O)[C@@H]1C` [RIFAXIMIN], for which the minimal inhibitory concentration (MIC) in assay [1] (LPM pH 5.8) came out at 6.25 µM (≈ 4.91 µg/mL); in assay [1] (MHB), 12.5 µM (≈ 9.82 µg/mL); in assay [1] (MOPS glucose minimal medium), 25 µM (≈ 19.6 µg/mL). Besides, the “intracellular MIC” value in assay [2] was 12.5 µM. The compound also registered a cytotoxicity in the assay with RAW264.7 of 6.48%.

As to `CN1CCN(c2c(F)cc3c(=O)c(C(=O)O)cn4c3c2SCC4)CC1` [RUFLOXACIN HYDROCHLORIDE], the MIC in assay [1] (LPM pH 5.8) was 6.25 µM; in assay [1] (MHB), 1.56 µM; in assay [1] (MOPS glucose minimal medium) it was at most 0.78 µM. Besides, the “intracellular MIC” value in assay [2] was at most 0.78 µM. For the same compound, the cytotoxicity in the assay with RAW264.7 worked out at 13.3%.

Regarding `C[n+]1cc2c3c(ccc2c2ccc4cc5c(cc4c21)OCO5)OCO3` [SANGUINARINE SULFATE], the minimal inhibitory concentration (MIC) in assay [1] (LPM pH 5.8), in assay [1] (MHB) and in assay [1] (MOPS glucose minimal medium) was above 50 µM in each case. In addition, in assay [2], the “intracellular MIC” value amounted to 25 µM. The same compound displayed a cytotoxicity in the assay on RAW264.7 of 34.2%.

With `O=C(O)c1cn(-c2ccc(F)cc2)c2cc(N3CCNCC3)c(F)cc2c1=O` [SARAFLOXACIN HYDROCHLORIDE], the MIC in assay [1] (LPM pH 5.8), in assay [1] (MHB) and in assay [1] (MOPS glucose minimal medium) was at most 0.78 µM each time. For the same compound, in assay [2], the “intracellular MIC” value is at most 0.78 µM. The cytotoxicity with RAW264.7 came out at 21.5%.

As to `CN[C@H]1CC[C@@H](c2ccc(Cl)c(Cl)c2)c2ccccc21` [SERTRALINE HYDROCHLORIDE], the MIC in assay [1] (LPM pH 5.8), in assay [1] (MHB) and in assay [1] (MOPS glucose minimal medium) was above 50 µM throughout. For the same compound, in assay [2], the “intracellular MIC” value is above 50 µM. The cytotoxicity in the assay with RAW264.7 came to 22.7%.

Regarding `C[C@@H]1CN(c2c(F)c(N)c3c(=O)c(C(=O)O)cn(C4CC4)c3c2F)C[C@H](C)N1` [SPARFLOXACIN], the minimum inhibitory concentration (MIC) in assay [1] (LPM pH 5.8), in assay [1] (MHB) and in assay [1] (MOPS glucose minimal medium) was at most 0.78 µM in each case. In addition, the “intracellular MIC” value in assay [2] is at most 0.78 µM. The same compound registered a cytotoxicity in the assay with RAW264.7 of 16.6%.

`O=C(CCCN1CCC2(CC1)C(=O)NCN2c1ccccc1)c1ccc(F)cc1` [SPIPERONE]: the minimum inhibitory concentration (MIC) in assay [1] (LPM pH 5.8), in assay [1] (MHB) and in assay [1] (MOPS glucose minimal medium) was above 50 µM in each case. Besides, the “intracellular MIC” value in assay [2] was above 50 µM. In addition, the cytotoxicity with RAW264.7 came to 20.9%.

As to `OC[C@H]1O[C@H](O[C@]2(CCl)O[C@H](CCl)[C@@H](O)[C@@H]2O)[C@H](O)[C@@H](O)[C@H]1Cl` [SUCRALOSE], the MIC in assay [1] (LPM pH 5.8) is above 50 µM; in assay [1] (MHB), at most 0.78 µM; in assay [1] (MOPS glucose minimal medium), 6.25 µM (≈ 2.49 µg/mL). In addition, the “intracellular MIC” value in assay [2] was at most 0.78 µM. Moreover, in the assay on RAW264.7, the cytotoxicity is 15%.
